Here are results for two compounds from patent US20250161408A1, “PEPTIDIC INHIBITORS OF AMYLOID SELF- AND CROSS-ASSEMBLY” (TECHNISCHE UNIVERSITÄT MÜNCHEN, priority 2022, published 2025).

“Also recorded” adds a separate entry of the source. Non-standard residues stand in square brackets, D forms with d. Residues, ends and D or L forms follow the SMILES beside them. NMeF = CN[C@@H](Cc1ccccc1)C(=O)O; NMeV = CN[C@H](C(=O)O)C(C)C; Nle = CCCC[C@H](N)C(=O)O

Data set [1] concerns proteinase K. The data set can be described thus: Proteinase K (PK) fibril digestion assay with dot blot. The conditions noted are these: IAPP-related fibrils; 37° C.; dot blot with anti-fIAPP and anti-Aβ antibodies. As to the method:
Solutions made as above but w/o PK were used as controls for 100% undigested fibrils. Solutions were incubated at 37° C. and at indicated time points aliquots were dotted onto nitrocellulose membranes and spots were quickly dried by air. Membranes were washed (TBS-T) and blocked (5% milk in TBS-T, overnight (10° C.)). […] Primary antibodies were combined with goat anti-mouse-POD (1:1000) or donkey anti-rabbit-POD (1:5000); detection was as under “Cross-linking, NuPAGE and WB”.

Data set [2] addresses T1, IAPP (Homo sapiens, UniProt P10997).
T1 construct: made in house; host or cells: chemical synthesis (Fmoc-SPPS), air-oxidised, RP-HPLC purified
T1 sequence (P10997 34-70 limits assumed): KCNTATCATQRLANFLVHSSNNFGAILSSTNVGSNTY
The experiment in a line: MTT reduction assay of IAPP-mediated cell damage in RIN5fm cells. It is filed as cell-based. As to the method: Briefly, cells were cultivated and platted in 96-well plates. Aliquots of solutions used for the ThT binding assays (see “ThT binding assays”) were diluted with cell medium at the indicated incubation time points (24 h or 7 days) and added to the cells at the indicated final concentrations. Following incubation with the cells for ˜20 h (37° C., humidified atmosphere, 5% CO2) cell damage was assessed by measuring cellular MTI reduction. IC50 values were determined.
A general note: Formazan colour is commonly taken as a measure of viable cells.

Data set [3] has as its target T2, Aβ42 (Homo sapiens, UniProt P05067).
T2 construct: the 40(42)-residue peptide Aβ40(42); made in house; host or cells: chemical synthesis (Fmoc-SPPS), monomer isolated by SEC
The data set can be described thus: cell-based. The conditions noted are these: read-out: IC50 (±SD) of inhibitory effects of ACMs on Aβ42-mediated cell damage. As to the method: Following incubation with the cells for ˜20 h (37° C., humidified atmosphere, 5% CO2), cell damage was assessed by measuring cellular MTT reduction.
Solutions were aged for 1.5 h (37° C., shaking 500 rpm). Aliquots were diluted with cell medium, incubated with PC12 cells at the indicated final concentrations for ˜20 h and cellular MTT reduction was measured as above.

The target in data set [4] is T2, Aβ42. The experiment in a line: Fluorescence spectroscopic titration of FITC-Aβ42 with ACMs. The conditions noted are these: read-out: app. KD (±SD) of ACM/Aβ42 interactions; N-terminal FITC-labelled Aβ42 5 nM, pH 7.4; means from three binding curves. Here is the method: Fluorescence spectroscopic studies were performed with a Jasco FP-6500 fluorescence spectrophotometer. Briefly, excitation was at 492 nm and spectra were measured between 500 and 600 nm. All titrations were performed in freshly made solutions of synthetic N-terminal fluorescently labeled peptide (5 nM) and various amounts of unlabeled peptide in 10 mM sodium phosphate buffer, pH 7.4 (1% HFIP) within 2-5 min following solution preparation. Under these experimental conditions, freshly made solutions of Fluos-IAPP and FITC-Aβ42 (5 nM) consist mostly of monomers and the same was found for Fluos-ACMs (5 nM) (FIG. 13e and data not shown). Apparent binding affinities (app. KDs) were estimated by using 1/1 binding models. However, due to the high self-assembly propensities of involved peptides more complex models might also apply. Determined app. KDs are means (±SD) from three binding curves derived from three independent titration assays.

Data set [5] has as its target T2, Aβ42. The data set can be described thus: ThT binding assay of Aβ42 fibrillogenesis (self-assembly, seeding, cross-seeding). It is filed as biochemical. As to the method:
Aβ42 fibrillogenesis-related studies. […] Peptide incubations were performed in the presence of ThT in 96-well black MTPs (FluoroNunc, Thermo Fisher Scientific). […] Values of seeds or buffer alone were subtracted from the data in self-/cross-seeding assays; all other data shown are raw data except for data in FIG. 27b which were normalized).
Incubations (37° C.) and determination of ThT fluorescence were performed as for all other Aβ42-related studies.

For data set [6], the system named is cultured murine BV2 microglia. The data set can be described thus: Phagocytosis of Aβ42 species with or without ACM. It is filed as cell-based, mouse. The conditions noted are these: 1/1, co-incubation 2 h. Here is the method:
Briefly, BV2 cells were maintained in GlutaMAX-supplemented RPMI1640 medium containing 10% FBS and 1% penicillin/streptomycin on poly-L-ornithine-coated flasks. For the phagocytosis assay, BV2 cells were seeded into 24-well plates containing coverslips in serum-free RPMI1640-GlutaMAX and further incubated for 24 h (5% CO2, 37° C.) to reach 10000 cells/well. Primary BMDMs were obtained from bone-marrow monocytes isolated from wildtype C57BL/6 mice, plated in 24-well plates at a density of 10000cells/well, and differentiated with L929 cell-conditioned medium (RPMI1640, 10% FBS, 1% penicillin/streptomycin) for 7 days. Thereafter, cells were incubated with aged peptide solutions at 37° C. for 6 h. […]
Following incubation of the cells with the peptides, supernatants were removed and cells on the coverslips were washed 5 times with ice-cold 1×PBS, fixed with 4% paraformaldehyde, washed with 1×PBS, permeabilized with 0.2% Triton-X 100, and rinsed three times with cold 1×PBS. […] Images were acquired using a Leica DMi8 fluorescence microscope. The percentage of cells that had taken up peptides was calculated by dividing the number of BV2 cells or BMDMs that phagocytosed TAMRA-labeled peptide by the total cell count, multiplied by 100. Significance was analyzed by unpaired student's t-test.

T2 sequence (P05067 672-713): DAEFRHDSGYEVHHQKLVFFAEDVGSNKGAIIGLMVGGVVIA

As for `CC[C@H](C)[C@H](NC(=O)[C@H](C)NC(=O)CNC(=O)[C@H](Cc1ccccc1)NC(=O)[C@H](CC(N)=O)NC(=O)[C@H](CC(N)=O)NC(=O)[C@H](CO)NC(=O)[C@H](CO)NC(=O)[C@H](Cc1c[nH]cn1)NC(=O)[C@@H](NC(=O)[C@H](CC(C)C)NC(=O)[C@H](Cc1ccccc1)NC(=O)[C@H](CC(N)=O)NC(=O)[C@H](C)NC(=O)[C@H](CC(C)C)NC(=O)[C@H](CCCNC(=N)N)NC(=O)[C@H](CCC(N)=O)NC(=O)[C@@H](NC(=O)[C@H](C)NC(=O)[C@@H]1CSSC[C@H](NC(=O)[C@@H](N)CCCCN)C(=O)N[C@@H](CC(N)=O)C(=O)N[C@@H]([C@@H](C)O)C(=O)N[C@@H](C)C(=O)N[C@@H]([C@@H](C)O)C(=O)N1)[C@@H](C)O)C(C)C)C(=O)N[C@@H](CC(C)C)C(=O)N[C@@H](CO)C(=O)N[C@@H](CO)C(=O)N[C@H](C(=O)N[C@@H](CC(N)=O)C(=O)N[C@H](C(=O)NCC(=O)N[C@@H](CO)C(=O)N[C@@H](CC(N)=O)C(=O)N[C@H](C(=O)N[C@@H](Cc1ccc(O)cc1)C(N)=O)[C@@H](C)O)C(C)C)[C@@H](C)O` [IAPP], the “Time to degradation by proteinase K” value in data set [1] is listed as “at least 30 h”.

As for `CCCC[C@H](NC(=O)[C@H](CC(=O)O)NC(=O)[C@H](CCC(=O)O)NC(=O)[C@H](C)NC(=O)[C@H](Cc1ccccc1)N(C)C(=O)[C@H](Cc1ccccc1)NC(=O)[C@H](C(C)C)N(C)C(=O)[C@H](CC(C)C)NC(=O)[C@H](CCCCN)NC(=O)[C@@H](N)CCC(N)=O)C(=O)N[C@@H](CCCC)C(=O)N[C@@H](CCCC)C(=O)N[C@@H](CC(N)=O)C(=O)N[C@@H](CCCCN)C(=O)NCC(=O)N[C@@H](C)C(=O)N[C@H](C(=O)N[C@H](C(=O)NCC(=O)N[C@@H](CC(C)C)C(=O)N[C@@H](CCCC)C(=O)N[C@H](C(=O)NCC(=O)NCC(=O)N[C@H](C(=O)N[C@H](C(=O)O)C(C)C)C(C)C)C(C)C)[C@@H](C)CC)[C@@H](C)CC` [Nle3-VF] (H-QKL[NMeV]F[NMeF]AED[Nle][Nle][Nle]NKGAIIGL[Nle]VGGVV-OH), the “Effect of addition to preformed fIAPP on fIAPP cytotoxicity (MTT reduction)” value in data set [2] (RIN5fm cells, ACM 33 μM added to fIAPP […], 1 day, fIAPP 500 nM) is on record as “does not affect fIAPP cytotoxicity”. In addition, the “Effect on formation of cytotoxic IAPP assemblies (MTT reduction)” value in data set [2] (RIN5fm cells, aged (24 h or 7 days) IAPP/peptide 1/2 solutions) is recorded as “fully suppressed; also recorded: suppress formation of toxic IAPP assemblies”. The values for the concentration for half-maximal inhibition (IC50) in data set [2] (read-out: IC50 (±SD) of inhibitory effects of ACMs on IAPP-mediated cell damage) and in data set [3] were 65 nM and 367 nM, respectively. Moreover, the Kd in data set [4] was determined as 14.5 ± 8 nM. Also, the “Effect of addition to preformed toxic Aβ42 oligomers on fibrillogenesis (ThT binding)” value in data set [5] (2 h-aged Aβ42, 1/1) is listed as “delay of fibrillogenesis”. Besides, the “Effect of addition to already nucleated Aβ42 fibrillogenesis (ThT binding)” value in data set [5] (Aβ42 5 μM, post-nucleation addition) is reported as “does not affect amounts of already formed ThT-positive fibrils”. In data set [6], the “Effect of addition to TAMRA-oAβ42 on Aβ42 phagocytosis” value is reported as “increased Aβ42 phagocytosis”.

By IC50 is commonly meant the concentration at which inhibition is half-maximal.
